According to PubChem BioAssay (NCI):
Several values for one entry are separate records, joined by “and”; a condition that tells them apart may be missing. Equal entries are not always repeated.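 Five concentrations, 48 hours, 96-well plates. Here, GI50 denotes the concentration required for 50% inhibition of growth. TGI marks complete inhibition of growth.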

How the values were obtained:
Experiment in all cases: NCI-60 cell line screen, 48 h
HOP-92 NSCLC = test system: HOP-92 NSCLC
SW-620 colon = test system: SW-620 colon
OVCAR-5 ovarian = test system: OVCAR-5 ovarian
SN12C renal = test system: SN12C renal
MCF7 breast = test system: MCF7 breast
NCI-H522 lung = test system: NCI-H522 lung
SF-539 CNS = test system: SF-539 CNS
BT-549 breast = test system: BT-549 breast
EKVX NSCLC = test system: EKVX NSCLC
K-562 leukemia = test system: K-562 leukemia

| Structure (SMILES) | GI50 (HOP-92 NSCLC) | TGI (HOP-92 NSCLC) | GI50 (SW-620 colon) | TGI (SW-620 colon) | GI50 (OVCAR-5 ovarian) | TGI (OVCAR-5 ovarian) | GI50 (SN12C renal) | TGI (SN12C renal) | GI50 (MCF7 breast) | TGI (MCF7 breast) | GI50 (NCI-H522 lung) | TGI (NCI-H522 lung) | GI50 (SF-539 CNS) | TGI (SF-539 CNS) | GI50 (BT-549 breast) | TGI (BT-549 breast) | GI50 (EKVX NSCLC) | TGI (EKVX NSCLC) | GI50 (K-562 leukemia) | TGI (K-562 leukemia) |
| --- | --- | --- | --- | --- | --- | --- | --- | --- | --- | --- | --- | --- | --- | --- | --- | --- | --- | --- | --- | --- |
| C/C(=C\C(=O)O[C@H]1[C@@H]2[C@H](C)CC[C@H]2[C@]2(C)O[C@@]1(C1CCCCC1)C[C@H]2OC(=O)CO)c1ccccc1 | 2.07 µM | 8.09 µM | 6.78 µM | 13.3 µM | 7 µM | 12.9 µM | 0.0228 µM | 7.18 µM | 5.4 µM | 11.9 µM | 6.55 µM | 13.1 µM | 7.1 µM | 13.2 µM | 0.12 µM | 4.21 µM | 6.46 µM | 12.5 µM | 7.82 µM | 17.6 µM |
| COc1ccc(C2=NN(C(N)=S)C(c3ccc4c(c3)OCO4)C2)cc1 (stereo unspecified) | 2.12 µM | 8.05 µM | 2.29 µM | 5.92 µM | 2.79 µM | 21.9 µM | 3.37 µM | > 100 µM | 3.23 µM | > 100 µM | 2.4 µM | 16.8 µM | 2.12 µM | 5.21 µM | 2.89 µM | 20.5 µM | 2.54 µM | 37.9 µM | 2.89 µM | > 100 µM |
| Cc1c2cnccc2c(C)c2c1c1ccccc1n2CCOC(=O)c1ccccc1 |  | 71.9 µM |  | 53.7 µM |  | 69 µM |  | 21 µM |  | 44.1 µM |  | 31.1 µM |  | 20.9 µM |  | > 100 µM |  | 47.9 µM |  | 44.5 µM |
| Cn1cc(-c2ccc3nc(-c4ccc(CC(=O)Nc5cc(C(C)(C)C)no5)cc4)cnc3c2)cn1 | 0.0495 µM | > 3 µM | 0.0477 µM | > 3 µM | 0.0828 µM | > 3 µM | 0.0268 µM | > 3 µM |  | > 3 µM | 0.0498 µM | > 3 µM | 0.0274 µM | > 3 µM | 0.206 µM | > 3 µM | 0.143 µM | > 3 µM | 0.017 µM | > 3 µM |
| CN(C)CCNC(=O)c1cc2c3cc(Cl)ccc3[nH]c2c2ncccc12 | 2.36 µM | 11.2 µM | 1.47 µM | 3.52 µM | 11.9 µM | 27.4 µM | 2.9 µM | 13.4 µM | 1.8 µM | 4.78 µM | 2.26 µM | 7.11 µM | 1.57 µM | 3.14 µM | 2.26 µM | 7.98 µM | 2.8 µM | 12.7 µM | 1.68 µM | 3.98 µM |
| COc1ccc(-c2csc3c2-n2cccc2C3=O)cc1 | 0.0919 µM | > 100 µM | 0.0056 µM | > 100 µM | 0.0946 µM | > 100 µM | 0.0681 µM | > 100 µM | 0.0945 µM | > 41.6 µM | 0.00234 µM and 0.0218 µM | 0.00998 µM and 0.0802 µM |  | 2.39 µM | 0.0492 µM |  | 0.597 µM | > 81.4 µM | 0.00275 µM |  |
| CCCCn1c(=O)[nH]c(N)c([C@@H]2c3c([nH]c(=O)n(CCCC)c3=O)Oc3ccc4ccccc4c32)c1=O | 2 µM | 6.5 µM | 0.37 µM | 1.18 µM | 3.63 µM | 13.8 µM | 2.51 µM | 6.94 µM | 2.88 µM | 24 µM | 2.57 µM | 6.36 µM | 7.86 µM | 20.4 µM | 1.83 µM | 3.57 µM | 4.64 µM | 18.8 µM | 12.2 µM | 51.2 µM |
| O=C(N/N=C/c1ccc(Cl)cc1)c1ccc(NC(=O)c2ccccn2)cc1 | 5.23 µM | 53.2 µM | 59 µM | > 100 µM | 68 µM | > 100 µM | 18.9 µM | 55.4 µM | 47.3 µM | > 100 µM | 31.5 µM | > 100 µM | 15.8 µM | 40.3 µM | 25 µM | 99.6 µM | 48.7 µM | > 100 µM | > 100 µM | > 100 µM |
| COc1cc(/C=C/C(=O)c2cccc(-n3cc(-c4ccccc4)[nH]c3=O)c2)cc(OC)c1OC | 10.8 µM | 35.6 µM | 0.39 µM | 1.39 µM | 1.88 µM | 3.74 µM | 2.09 µM | 10.7 µM | 0.31 µM | 1.12 µM | 0.958 µM | 2.52 µM | 1.68 µM | 3.12 µM | 1.93 µM | 5.47 µM | 2.3 µM | 11.4 µM | 0.502 µM | > 100 µM |
